Results published in PMC5285354, “Cationic Net Charge and Counter Ion Type as Antimicrobial Activity Determinant Factors of Short Lipopeptides” (Frontiers in Microbiology, 2017).
Converted amounts (≈) assume the structure as drawn. Like-named read-outs stand apart in the source and are kept apart here. Where a SMILES comes first, the peptide text is derived from it. The star is where a group is joined. Palmitoyl = CCCCCCCCCCCCCCCC(=O)*; Myristoyl = CCCCCCCCCCCCCC(=O)*; Lauroyl = CCCCCCCCCCCC(=O)*

Experiments:
Format in all cases: cell-based
[1] = test system: Candida albicans (ATCC 10231)
[2] = test system: Pseudomonas aeruginosa (ATCC 9027); details: ATCC 9027, 24 h
[3] = test system: Staphylococcus aureus (ATCC 25923); details: for MBC Staphylococcus aureus, lipopeptides without TFA counter ion / MIC Staphylococcus aureus / MIC Staphylococcus aureus, lipopeptides without TFA counter ion: ATCC 25923, 18 h; for MBC Staphylococcus aureus: ATCC 25923, 24 h
Procedure, shortened: (§1)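 Broth microdilution per CLSI: Mueller-Hinton broth, 10^5 cfu/mL inoculum, 18 h at 37°C for bacteria; Sabouraud dextrose broth, 10^3 cfu/mL, 48 h at 25°C for fungi. MIC (μg/mL) is the lowest lipopeptide concentration inhibiting visible growth; MBC/MFC also determined. Triplicate on three days.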

[4] = test system: Escherichia coli (ATCC 25922); details: for MBC Escherichia coli, lipopeptides without TFA counter ion / MIC Escherichia coli / MIC Escherichia coli, lipopeptides without TFA counter ion: ATCC 25922, 18 h; for MBC Escherichia coli: ATCC 25922, 24 h
Procedure, shortened: as §1

[5] = test system: Proteus vulgaris (PCM 2668)
Procedure, shortened: as §1

[6] = test system: Candida albicans (ATCC 10231); details: ATCC 10231, 48 h
Procedure, shortened: as §1

[7] = test system: Bacillus subtilis (ATCC 6633); details: for MIC Bacillus subtillis: ATCC 6633, 18 h; for MBC Bacillus subtillis: ATCC 6633, 24 h
Procedure, shortened: as §1

[8] = test system: Candida tropicalis (PCM 2681); details: PCM 2681, 48 h
Procedure, shortened: as §1

[9] = test system: Aspergillus brasiliensis (ATCC 16404); details: ATCC 16404, 48 h
Procedure, shortened: as §1

[10] = test system: Staphylococcus epidermidis (PCM 2118); details: for MIC Staphylococcus epidermidis: PCM 2118, 18 h; for MBC Staphylococcus epidermidis: PCM 2118, 24 h
Procedure, shortened: as §1

[11] = test system: Klebsiella pneumoniae (ATCC 700603); details: for MBC Klebsiella pneumoniae, lipopeptides without TFA counter ion / MIC Klebsiella pneumoniae / MIC Klebsiella pneumoniae, lipopeptides without TFA counter ion: ATCC 700603, 18 h; for MBC Klebsiella pneumoniae: ATCC 700603, 24 h
Procedure, shortened: as §1

[12] = test system: Pseudomonas aeruginosa (ATCC 9027); details: ATCC 9027, 18 h
Procedure, shortened: as §1

[13] = test system: Enterococcus faecalis (ATCC 29212); details: for MBC Enterococcus fecalis, lipopeptides without TFA counter ion / MIC Enterococcus fecalis / MIC Enterococcus fecalis, lipopeptides without TFA counter ion: ATCC 29212, 18 h; for MBC Enterococcus fecalis: ATCC 29212, 24 h
Procedure, shortened: as §1

[14] = test system: Proteus vulgaris (PCM 2668); details: 24 h
human red blood cells = details: 1 h
Description: The hemolytic activity of the lipopeptides was determined by exposing human red blood cells (4% v/v) to tested compounds at graded concentrations. Red blood cells were obtained from a healthy donor. EDTA was used to prevent the blood clotting. The plasma was removed via centrifugation and the erythrocytes were washed three times with PBS. The red blood cells were suspended in PBS and incubated with different concentrations of lipopeptides at 37°C for 1 h and centrifuged for 5 min at 1000 × g. The supernatants were transferred to a sterile 96-well plate and hemoglobin release was measured with an Epoch microplate spectrophotometer (BioTek, USA) by recording the absorbance at 550 nm. A 0.1% Triton X-100 solution was used as the positive control (100% of hemolysis) and pure PBS as the negative (0% of hemolysis). Minimum hemolytic concentration (MHC) was taken as the lowest concentration which induced 10% of hemolysis.

| MIC Staphylococcus aureus [3] | MIC Escherichia coli [4] | MIC Candida albicans [6] | MIC Bacillus subtillis [7] | MIC Candida tropicalis [8] | MIC Aspergillus brasiliensis [9] | MIC Staphylococcus epidermidis [10] | MIC Klebsiella pneumoniae [11] | MIC Pseudomonas aeruginosa [12] | MIC Enterococcus fecalis [13] | SMILES | MBC Pseudomonas aeruginosa [2] | MBC Staphylococcus aureus [3] | MBC Escherichia coli [4] | MFC Candida albicans [6] | MBC Bacillus subtillis [7] | MFC Candida tropicalis [8] | MFC Aspergillus brasiliensis [9] | MBC Staphylococcus epidermidis [10] | MBC Klebsiella pneumoniae [11] | MBC Enterococcus fecalis [13] | also measured |
| --- | --- | --- | --- | --- | --- | --- | --- | --- | --- | --- | --- | --- | --- | --- | --- | --- | --- | --- | --- | --- | --- |
| 32 µg/mL (≈ 77.6 µM) | 64 µg/mL (≈ 155 µM) | 128 µg/mL (≈ 310 µM) | 16 µg/mL (≈ 38.8 µM) | 256 µg/mL (≈ 620 µM) | 128 µg/mL (≈ 310 µM) | 16 µg/mL (≈ 38.8 µM) | 32 µg/mL (≈ 77.6 µM) | 32 µg/mL (≈ 77.6 µM) | 32 µg/mL (≈ 77.6 µM) | CCCCCCCCCCCCCC(=O)N[C@@H](CCCCN)C(=O)NCC(N)=O [C14-KG-NH2] (Myristoyl-Lys-Gly-NH2) | 64 µg/mL (≈ 155 µM) | 32 µg/mL (≈ 77.6 µM) | 64 µg/mL (≈ 155 µM) | 128 µg/mL (≈ 310 µM) | 16 µg/mL (≈ 38.8 µM) | 256 µg/mL (≈ 620 µM) | 128 µg/mL (≈ 310 µM) | 16 µg/mL (≈ 38.8 µM) | 32 µg/mL (≈ 77.6 µM) | 32 µg/mL (≈ 77.6 µM) | MFC Candida albicans, lipopeptides without TFA counter ion [1]: 256 µg/mL (≈ 620 µM); MBC Staphylococcus aureus, lipopeptides without TFA counter ion [3]: 32 µg/mL (≈ 77.6 µM); MIC Staphylococcus aureus, lipopeptides without TFA counter ion [3]: 32 µg/mL (≈ 77.6 µM); MBC Escherichia coli, lipopeptides without TFA counter ion [4]: 64 µg/mL (≈ 155 µM); MIC Escherichia coli, lipopeptides without TFA counter ion [4]: 64 µg/mL (≈ 155 µM); MIC Proteus vulgaris ([5]; 18 h): >512 µg/mL; MIC Candida albicans, lipopeptides without TFA counter ion [6]: 256 µg/mL (≈ 620 µM); MBC Klebsiella pneumoniae, lipopeptides without TFA counter ion [11]: 64 µg/mL (≈ 155 µM); MIC Klebsiella pneumoniae, lipopeptides without TFA counter ion [11]: 32 µg/mL (≈ 77.6 µM); MBC Enterococcus fecalis, lipopeptides without TFA counter ion [13]: 32 µg/mL (≈ 77.6 µM); MIC Enterococcus fecalis, lipopeptides without TFA counter ion [13]: 32 µg/mL (≈ 77.6 µM); MBC Proteus vulgaris [14]: >512 µg/mL |
| 2000 µg/mL (≈ 3510 µM) | 2000 µg/mL (≈ 3510 µM) | 1000 µg/mL (≈ 1760 µM) | 64 µg/mL (≈ 112 µM) | 1000 µg/mL (≈ 1760 µM) | 1000 µg/mL (≈ 1760 µM) | 256 µg/mL (≈ 449 µM) | 2000 µg/mL (≈ 3510 µM) | 1000 µg/mL (≈ 1760 µM) | 512 µg/mL (≈ 899 µM) | CCCCCCCCCCCC(=O)N[C@@H](CCCCN)C(=O)NCC(=O)N[C@@H](CCCCN)C(=O)NCC(N)=O [C12-KGKG-NH2] (Lauroyl-KGKG-NH2) | 1000 µg/mL (≈ 1760 µM) | 2000 µg/mL (≈ 3510 µM) | 2000 µg/mL (≈ 3510 µM) | 2000 µg/mL (≈ 3510 µM) | 64 µg/mL (≈ 112 µM) | 2000 µg/mL (≈ 3510 µM) | 1000 µg/mL (≈ 1760 µM) | 512 µg/mL (≈ 899 µM) | 2000 µg/mL (≈ 3510 µM) | 512 µg/mL (≈ 899 µM) | Hemolysis HC10 (MHC), concentration of lipopeptide inducing 10% of hemolysis (human red blood cells): 256 µg/mL; MIC Proteus vulgaris ([5]; PCM 2668, TFA salt, Mueller-Hinton broth, 10^5 cfu/mL, 18 h 37°C, triplicate): >2000 µg/mL; MBC Proteus vulgaris ([5]; PCM 2668, TFA salt, subculture on Mueller-Hinton II Agar, 24 h 37°C, triplicate): >2000 µg/mL |
| 4 µg/mL (≈ 5.21 µM) | 8 µg/mL (≈ 10.4 µM) | 128 µg/mL (≈ 167 µM) | 4 µg/mL (≈ 5.21 µM) | 128 µg/mL (≈ 167 µM) | 128 µg/mL (≈ 167 µM) | 4 µg/mL (≈ 5.21 µM) | 4 µg/mL (≈ 5.21 µM) | 8 µg/mL (≈ 10.4 µM) | 16 µg/mL (≈ 20.8 µM) | CCCCCCCCCCCCCCCC(=O)N[C@@H](CCCCN)C(=O)N[C@@H](CCCCN)C(=O)N[C@@H](CCCCN)C(=O)N[C@@H](CCCCN)C(N)=O [C16-KKKK-NH2] (Palmitoyl-KKKK-NH2) | 8 µg/mL (≈ 10.4 µM) | 8 µg/mL (≈ 10.4 µM) | 8 µg/mL (≈ 10.4 µM) | 128 µg/mL (≈ 167 µM) | 4 µg/mL (≈ 5.21 µM) | 128 µg/mL (≈ 167 µM) | 128 µg/mL (≈ 167 µM) | 4 µg/mL (≈ 5.21 µM) | 8 µg/mL (≈ 10.4 µM) | 16 µg/mL (≈ 20.8 µM) | MFC Candida albicans, lipopeptides without TFA counter ion [1]: 128 µg/mL (≈ 167 µM); MBC Staphylococcus aureus, lipopeptides without TFA counter ion [3]: 4 µg/mL (≈ 5.21 µM); MIC Staphylococcus aureus, lipopeptides without TFA counter ion [3]: 4 µg/mL (≈ 5.21 µM); MBC Escherichia coli, lipopeptides without TFA counter ion [4]: 8 µg/mL (≈ 10.4 µM); MIC Escherichia coli, lipopeptides without TFA counter ion [4]: 8 µg/mL (≈ 10.4 µM); MIC Proteus vulgaris ([5]; 18 h): >512 µg/mL; MIC Candida albicans, lipopeptides without TFA counter ion [6]: 128 µg/mL (≈ 167 µM); MBC Klebsiella pneumoniae, lipopeptides without TFA counter ion [11]: 4 µg/mL (≈ 5.21 µM); MIC Klebsiella pneumoniae, lipopeptides without TFA counter ion [11]: 4 µg/mL (≈ 5.21 µM); MBC Enterococcus fecalis, lipopeptides without TFA counter ion [13]: 8 µg/mL (≈ 10.4 µM); MIC Enterococcus fecalis, lipopeptides without TFA counter ion [13]: 4 µg/mL (≈ 5.21 µM); MBC Proteus vulgaris [14]: >512 µg/mL |
